Results published in patent US20230174951A1, “PHENOL-RICH GRAPES” (THE STATE OF ISRAEL, MINISTRY OF AGRICULTURE & RURAL …, priority 2020, published 2023).

Legend:
[1] = system: AroG*+STS28 (Line 16) cells; test: Effect of Phe and p-CA concentrations on cell growth; format: cell-based, Vitis vinifera
Protocol: The concentrations of Phe and p-CA chosen for the feeding experiments were those in which cell viability was not affected, but cell growth was slower. To compare the growth rate, the fresh Weight (FW) of the cells per ml growth media was measured at day 7 of growth. […] Even though the viability of the treated with 0.5-5 mM Phe and 0.1-0.3 mM p-CA was similar, their growth pattern differed with formation of larger clumps in the liquid media (FIG. 6C).

N[C@@H](Cc1ccccc1)C(=O)O [Phe, Phenylalanine]
weight of treated cells ([1]; 1, 2 and 5 mM, day 7): weighed significantly less

O=C(O)/C=C/c1ccc(O)cc1 [p-Coumaric acid, p-coumaric acid]
cell growth ([1]; 0.3 mM, compared to cells in 0.2% ethanol): slower growth | water solubility (Water solubility): not water soluble
